Test results as given in patent US12213978B2, “Madrasin-derivative compounds, composition and uses thereof for treating cancer” (INSTITUT GUSTAVE ROUSSY, priority 2018, dated 2025).

Tests used:
[1] = tested on: B16F10 melanoma cells expressing the intron-derived SL8 antigen; test: T-cell assay: B3Z specific T-cell activation by B16F10 cells expressing the intron-derived SL8 antigen; type: cell-based, mouse; settings: for PTP-SL8 presentation (B3Z T-cell activation): O/N
Procedure: (§1) MCA205 mouse sarcoma cell line is cultured at 37° C. under 5% CO2 in RPMI 1640 medium (Life Technologies) in the presence of 1% glutamine, 1% sodium pyruvate, 1% non-essential amino-acids, 1% penicillin/streptomycin and 10% FBS (Life Technologies). B16F10 mouse melanoma cell line is cultured at 37° C. under 5% CO2 in DMEM medium (Life Technologies) containing 1% glutamine, 1% penicillin/streptomycin and 10% FCS under standard conditions. Stable MCA205-Globin-SL8-intron cell line are cultured under the same condition as MCA205 cell line with additional 500 μg/ml G418 (Life Technologies) for selection. Stable B16F10-Globin-SL8-intron cell line are cultured under the same condition as B16F10 cell line with additional 500 μg/ml G418 (Life Technologies) for selection. The SL8/Kb-specific (B3Z) T-cell reporter hybridoma are cultured at 37° C. under 5% CO2 in RPMI 1640 medium (Life Technologies) in the presence of 1% L-glutamine, 1% penicillin/streptomycin, 50 μM β-mercaptoéthanol and 10% FCS.
(§2) MCA205 and B16F10 mouse cell lines are transfected with the plasmid YFP-Globin-SL8-intron or with the PCDNA3 empty plasmid (negative control) with the transfection reagent jetPRIME (Ozyme) or GeneJuice (Millipore) respectively according to each manufacturer protocol. Twenty-four hours after transfection, cells are treated with different doses of Madrasin (Sigma SML 1409), Madra.HCl (3·HCl) or the different compounds herein cited. Cells are then washed three times with PBS 1× and 5.10^4 tumor cells are co-cultured with 1.10^5 B3Z hybridoma in a 96-well plate. In positive control wells, 4 μg/ml of synthetic peptide SL8 is added. Cells are then incubated overnight at 37° C. with 5% CO2. The plate is centrifuged at 1200 rpm for 5 min, cells are washed twice with PBS 1× and lysed for 5 min at 4° C. under shaking in 0.2% TritonX-100, 0.2% DTT, 0.5M K2HPO4, 0.5M KH2PO4. The lysate is centrifuged at 3000 rpm for 10 min and the supernatant is transferred to a 96-well optiplate (OptiPlaque-96, PerkinElmer). A revelation buffer containing 10 mM MgCl2, 11.2 mM β-mercaptoethanol, 0.0015% IGEPAL® CA-630 and 40 μM 4-Methylumbelliferyl β-D-Galactopyranoside (MUG) in PBS is added and the plate is incubated at room temperature for 3 hours. Finally, the β-galactosidase activity is measured using the FLUOstar OPTIMA (BMG LABTECH Gmbh, 30 Offenburg, Germany). Results are expressed as mean±SEM. *P<0.05, **P<0.01, ***P<0.001 (unpaired student t test).

[2] = tested on: MCA205 sarcoma cells expressing the intron-derived SL8 antigen; test: T-cell assay: B3Z specific T-cell activation by MCA205 cells expressing the intron-derived SL8 antigen; type: cell-based, mouse; settings: for PTP-SL8 presentation (B3Z T-cell activation): O/N
Procedure: as §1, §2

Solubility in water = type: physicochemical

## COc1ccc2c(C)nc(Nc3ccc(OC)nc3)nc2c1 [EYP174, 7-Methoxy-N-(6-methoxypyridin-3-yl)-4-methylquinazolin-2-amine]
[1]; B16F10, 20 μM
  PTP-SL8 presentation (B3Z T-cell activation): increase

## COc1ccc2c(C)nc(Nc3nc(C)c(C)c(=O)[nH]3)nc2c1SCC(NC(C)=O)C(=O)O (stereo not drawn) [EYP102, N-Acetyl-S-(2-((4,5-dimethyl-6-oxo-1,6-dihydropyrimidin-2-yl)amino)-7-methoxy-4-methylquinazolin-8-yl)cysteine]
[1]; B16F10, 20 μM
  PTP-SL8 presentation (B3Z T-cell activation): not see any increase
[2]; MCA205, 20 μM
  PTP-SL8 presentation (B3Z T-cell activation): not see any increase

## COc1ccc2c(C)nc(Nc3c[nH]c4ccccc34)nc2c1 [EYP165, N-(1H-Indol-3-yl)-7-methoxy-4-methylquinazolin-2-amine]
[1]; B16F10, 60 μM
  PTP-SL8 presentation (B3Z T-cell activation): increase
[2]; MCA205, 60 μM
  PTP-SL8 presentation (B3Z T-cell activation): increase

## COc1ccc2c(C)nc(Nc3ccc(C)cc3)nc2c1 [EYP156, 7-Methoxy-4-methyl-N-(p-tolyl)quinazolin-2-amine]
[1]; B16F10, 60 μM
  PTP-SL8 presentation (B3Z T-cell activation): not see any increase
[2]; MCA205, 60 μM
  PTP-SL8 presentation (B3Z T-cell activation): not see any increase

## Cc1nc(Nc2nc(C)c3ccc(OCCN4CCOCC4)cc3n2)[nH]c(=O)c1C [EYP201, 5,6-Dimethyl-2-((4-methyl-7-(2-morpholinoethoxy)quinazolin-2-yl)amino)pyrimidin-4(3H)-one]
[1]; B16F10, 20 μM
  PTP-SL8 presentation (B3Z T-cell activation): increase
[2]; MCA205, 20 μM
  PTP-SL8 presentation (B3Z T-cell activation): increase

## COc1ccc2c(C)nc(Nc3nc(C)c(C)c(=O)[nH]3)nc2c1SC1OC(COC(C)=O)C(OC(C)=O)C(OC(C)=O)C1OC(C)=O [EYP86, ((1S,2S,4R,5S,6S)-5-Acetoxy-7,8-diacetyl-4-((2-((4,5-dimethyl-6-oxo-1,6-dihydropyrimidin-2-yl)amino)-7-methoxy-4-methylquinazolin-8-yl)thio)-3,7λ^3,8λ^3-trioxabicyclo[4.2.0]octan-2-yl)methyl Acetate]
[2]; MCA205, 50 μM
  PTP-SL8 presentation (B3Z T-cell activation): increase

## COc1ccc2c(C)nc(Nc3cn(C(=O)OC(C)(C)C)c4ccccc34)nc2c1 [EYP177, t-Butyl 3-((7-methoxy-4-methylquinazolin-2-yl)amino)-1H-indole-1-carboxylate]
[1]; B16F10, 60 μM
  PTP-SL8 presentation (B3Z T-cell activation): not see any increase
[2]; MCA205, 60 μM
  PTP-SL8 presentation (B3Z T-cell activation): not see any increase

## CNc1ccnc(Nc2nc(C)c3ccc(OC)cc3n2)n1 [EYP181, N^2-(7-Methoxy-4-methylquinazolin-2-yl)-N^4-methylpyrimidine-2,4-diamine]
[1]; B16F10, 10 μM
  PTP-SL8 presentation (B3Z T-cell activation): increase

## COc1ccc2c(C)nc(Nc3nc(C)c(C)c(=O)[nH]3)nc2c1S[C@H]1O[C@@H](CO)[C@H](O)[C@@H](O)[C@@H]1O [EYP113, 2-((7-Methoxy-4-methyl-8-(((2R,3S,4R,5R,6S)-3,4,5-trihydroxy-6-(hydroxymethyl)tetrahydro-2H-pyran-2-yl)thio)quinazolin-2-yl)amino)-5,6-dimethylpyrimidin-4(3H)-one]
[1]; B16F10, 10 μM
  PTP-SL8 presentation (B3Z T-cell activation): not see any increase
[2]; MCA205, 10 μM
  PTP-SL8 presentation (B3Z T-cell activation): not see any increase

## COc1ccc2c(C)nc(Nc3nc(C)c(C)c(=O)[nH]3)nc2c1 [Madrasin, 2-((7-Methoxy-4-methylquinazolin-2-yl)amino)-5,6-dimethylpyrimidin-4(3H)-one]
[1]; B16F10, 5 μM or 10 μM, dose dependent
  PTPs-dependent antigen presentation (B3Z T-cell activation): increase
[2]; MCA205, 5 μM or 10 μM, dose dependent
  PTPs-dependent antigen presentation (B3Z T-cell activation): increase
Solubility in water
  solubility in water: insoluble in water

## COc1ccc2c(C)nc(Nc3ccnc(OC)n3)nc2c1 [EYP190, 7-Methoxy-N-(2-methoxypyrimidin-4-yl)-4-methylquinazolin-2-amine]
[1]; B16F10, 60 μM
  PTP-SL8 presentation (B3Z T-cell activation): increase

## COc1ccc2c(C)nc(Nc3cc(OC)c(OC)c(OC)c3)nc2c1 [EYP188, 7-Methoxy-4-methyl-N-(3,4,5-trimethoxyphenyl)quinazolin-2-amine]
[2]; MCA205, 60 μM
  PTP-SL8 presentation (B3Z T-cell activation): increase

## COc1ncc(Nc2ncc3ccccc3n2)cn1 [EYP281, N-(2-Methoxypyrimidin-5-yl)quinazolin-2-amine]
[1]; B16F10, 50 μM
  PTP-SL8 presentation (B3Z T-cell activation): increase
[2]; MCA205, 50 μM
  PTP-SL8 presentation (B3Z T-cell activation): increase

## COc1ccc2c(C)nc(Nc3nccc(OC)n3)nc2c1 [EYP179, 7-Methoxy-N-(4-methoxypyrimidin-2-yl)-4-methylquinazolin-2-amine]
[1]; B16F10, 20 μM
  PTP-SL8 presentation (B3Z T-cell activation): increase
